We go through 47 compounds from the Biogen ADME set (Fang et al. 2023).

For this data set the following is noted: for aqueous solubility: pH 6.8.

In brackets after ≈: the same amount, converted by molar mass. Where only a bound is given, the exact number is not on record here.

Take `CC(C)CC(=O)NCC(=O)N1CCCC1`: the MDR1-MDCK efflux ratio is 1.2; the intrinsic clearance, human liver microsomes is not above 4.74 mL/min/kg; the intrinsic clearance, rat liver microsomes was not above 10.7 mL/min/kg; the aqueous solubility was 61.5 µg/mL (≈ 290 µM).
For `O=C1N=C(N2CCCCN2)S/C1=C\c1ccc(F)cc1O`, the MDR1-MDCK efflux ratio is 1.69 and the aqueous solubility was 0.9 µg/mL (≈ 2.93 µM).
Compound `NC(CO)(CO)CCc1ccc(Sc2cccc(OCc3ccccc3)c2)cc1Cl` had an intrinsic clearance, human liver microsomes of 6.33 mL/min/kg and an intrinsic clearance, rat liver microsomes of 14.2 mL/min/kg.
As for `CNc1nc(C2CCNCC2)nc2c1CN(C)CC2`, the intrinsic clearance, human liver microsomes was found to be 9.51 mL/min/kg; the intrinsic clearance, rat liver microsomes was determined as 29.1 mL/min/kg; the aqueous solubility came out at 36.2 µg/mL (≈ 139 µM).
On to `COc1ccc(-c2onc(C)c2-c2cnn(-c3ccccc3)c2)c(O)c1`, for which the aqueous solubility worked out at 0.25 µg/mL (≈ 0.72 µM).
With `COc1cc2nc(N)sc2cc1OC`, the MDR1-MDCK efflux ratio amounted to 0.668; the intrinsic clearance, human liver microsomes is not above 4.74 mL/min/kg; the intrinsic clearance, rat liver microsomes was determined as 12.6 mL/min/kg; the aqueous solubility was 32.6 µg/mL (≈ 155 µM).
For `CC(C(=O)Nc1ccccc1)N1CCCN(c2nccs2)CC1` (configuration not stated), the MDR1-MDCK efflux ratio was 0.926; the intrinsic clearance, human liver microsomes worked out at 460 mL/min/kg; the intrinsic clearance, rat liver microsomes was determined as 2020 mL/min/kg; the aqueous solubility came to 37.1 µg/mL (≈ 112 µM).
`Cn1cc(Nc2nc(N)nc(-c3cccc(-n4ccc5cc(C6CC6)cc(F)c5c4=O)c3CO)n2)cn1`: the MDR1-MDCK efflux ratio amounted to 24.3; the fraction unbound, human plasma stood at 0.0709; the fraction unbound, rat plasma turned out to be 0.0381; the intrinsic clearance, human liver microsomes was not above 4.74 mL/min/kg. This compound returned an intrinsic clearance, rat liver microsomes of 37.9 mL/min/kg.
For `C=CC(=O)Nc1cccc(Sc2nc(Nc3ccc(N4CCN(C)CC4)cc3)ncc2Cl)c1`, the aqueous solubility worked out at 0.4 µg/mL (≈ 0.832 µM).
Turning to `OC[C@H](Nc1cncc(-c2ccc3[nH]ncc3n2)c1)c1ccccc1`, the MDR1-MDCK efflux ratio stood at 25; the fraction unbound, human plasma stood at 0.104; the fraction unbound, rat plasma was found to be 0.106; the intrinsic clearance, human liver microsomes turned out to be 9.8 mL/min/kg. The compound also returned an intrinsic clearance, rat liver microsomes of 330 mL/min/kg and an aqueous solubility of 32.7 µg/mL (≈ 98.6 µM).
For `CCc1nc2ccccc2n1CC(=O)Nc1ncc(C)s1`, the MDR1-MDCK efflux ratio came to 29.4; the intrinsic clearance, human liver microsomes was 8.53 mL/min/kg; the intrinsic clearance, rat liver microsomes was determined as 348 mL/min/kg; the aqueous solubility worked out at 49.2 µg/mL (≈ 164 µM).
The compound `Cc1noc(CC2CCN(Cc3cccnc3)CC2)n1` returned an intrinsic clearance, human liver microsomes of 5.69 mL/min/kg and an intrinsic clearance, rat liver microsomes of 48.9 mL/min/kg.
Turning to `Cn1ncc2c1CCc1sc(NC(=O)c3cccnc3)nc1-2`, the MDR1-MDCK efflux ratio was found to be 1.58; the intrinsic clearance, human liver microsomes was found to be 16.6 mL/min/kg; the intrinsic clearance, rat liver microsomes was determined as 89.2 mL/min/kg; the aqueous solubility was found to be 10.8 µg/mL (≈ 34.7 µM).
As to `CCOC(=O)c1ccc(N2CCSCC2)nc1`, the MDR1-MDCK efflux ratio came out at 0.309; the intrinsic clearance, human liver microsomes is 411 mL/min/kg; the intrinsic clearance, rat liver microsomes is 2980 mL/min/kg.
Turning to `CN(C(=O)c1cc2ccc(C(C)(C)C)cc2[nH]1)C1(C#N)CCC1`, the MDR1-MDCK efflux ratio was 0.492 and the aqueous solubility worked out at 0.22 µg/mL (≈ 0.711 µM).
With `O=C(Nc1ccccc1-n1ccnc1)c1cccs1`, the MDR1-MDCK efflux ratio turned out to be 0.74; the intrinsic clearance, human liver microsomes was determined as 11 mL/min/kg; the intrinsic clearance, rat liver microsomes is 39.2 mL/min/kg; the aqueous solubility was found to be 77.2 µg/mL (≈ 287 µM).
As for `Cc1ccc(C(=O)C(=O)Nc2c(C)nn(C)c2C)cc1`, the MDR1-MDCK efflux ratio was found to be 0.615; the intrinsic clearance, human liver microsomes was 20 mL/min/kg; the intrinsic clearance, rat liver microsomes stood at 115 mL/min/kg; the aqueous solubility was determined as 32.6 µg/mL (≈ 120 µM).
In the same order, the values of `Cc1nccn1CCNC(=O)C(C)(C)C` are 6.52, not above 4.74 mL/min/kg, not above 10.7 mL/min/kg and 26.2 µg/mL (≈ 125 µM).
In the same order, the values of `CCN1C(=O)CC[C@H](C(=O)N2CCc3cc(F)cc(C)c3C2)[C@H]1c1ccncc1` are 51.4, 185 mL/min/kg, 473 mL/min/kg and 70.2 µg/mL (≈ 178 µM).
In the case of `CC(C)NC(=O)c1cn(-c2ccccc2)nc1-c1ccccc1`, the MDR1-MDCK efflux ratio stood at 0.459 and the aqueous solubility came out at 0.22 µg/mL (≈ 0.72 µM).
Regarding `Cn1nc(-c2cn(Cc3ccc(CO)cc3)nn2)c2c(Cl)cccc21`, the MDR1-MDCK efflux ratio turned out to be 5.12; the intrinsic clearance, human liver microsomes is 10 mL/min/kg; the intrinsic clearance, rat liver microsomes came to 190 mL/min/kg; the aqueous solubility worked out at 19.2 µg/mL (≈ 54.3 µM).
In the case of `O=C(Nc1ccc(F)cc1F)N1CCn2c1nc1ccccc12`, the MDR1-MDCK efflux ratio was found to be 0.468; the intrinsic clearance, human liver microsomes amounted to 78.5 mL/min/kg; the intrinsic clearance, rat liver microsomes came to 90.1 mL/min/kg; the aqueous solubility came to 6.1 µg/mL (≈ 19.4 µM).
In the case of `N#Cc1ccc(NS(=O)(=O)c2c[nH]c3nc(Cl)ccc23)c(F)c1`, the MDR1-MDCK efflux ratio stood at 6.41; the intrinsic clearance, human liver microsomes is not above 4.74 mL/min/kg; the aqueous solubility turned out to be 13.1 µg/mL (≈ 37.3 µM).
Consider `Cn1cc(NC(=O)c2cnn3cccnc23)c(C2CCCCC2)n1`, for which the MDR1-MDCK efflux ratio turned out to be 1.23; the intrinsic clearance, human liver microsomes was 37.7 mL/min/kg; the intrinsic clearance, rat liver microsomes was 188 mL/min/kg.
In the same order, the values of `CN(CCNC(=O)NC1CCOCC1)C1CCCC1` are 18.2, not above 4.74 mL/min/kg and 184 mL/min/kg.
`Cc1ncsc1-c1cncc(CC2CCCN(C)C2)n1` (configuration not stated): the MDR1-MDCK efflux ratio amounted to 0.97; the intrinsic clearance, human liver microsomes turned out to be 32 mL/min/kg; the intrinsic clearance, rat liver microsomes stood at 108 mL/min/kg.
On to `COc1cc(CN2CCC(c3ccnc(C)n3)CC2)ccc1F`, for which the MDR1-MDCK efflux ratio is 0.674; the intrinsic clearance, human liver microsomes was determined as 11.2 mL/min/kg; the intrinsic clearance, rat liver microsomes turned out to be 73.6 mL/min/kg; the aqueous solubility is 71 µg/mL (≈ 225 µM).
For the compound `CCN(c1ccccc1)S(=O)(=O)c1ccc(C(F)(F)F)cc1`, the aqueous solubility came to 1.4 µg/mL (≈ 4.25 µM).
For `COc1cccc(OCCCN)c1-c1cc(Nc2cnc(C#N)cn2)n[nH]1`, the MDR1-MDCK efflux ratio was found to be 17.5; the intrinsic clearance, human liver microsomes is not above 4.74 mL/min/kg; the intrinsic clearance, rat liver microsomes is 512 mL/min/kg; the aqueous solubility worked out at 39.1 µg/mL (≈ 107 µM).
Take `CCc1cnc(NCc2ccc(CN3CCCC3)cc2)nc1`: the MDR1-MDCK efflux ratio stood at 1.06; the intrinsic clearance, human liver microsomes was not above 4.74 mL/min/kg; the intrinsic clearance, rat liver microsomes is 291 mL/min/kg; the aqueous solubility was 31.8 µg/mL (≈ 107 µM).
In the case of `COc1ccc(-c2cccc(C3CCCN(C(=O)C4CCCC4)C3)n2)cc1` (configuration not stated), the MDR1-MDCK efflux ratio is 0.717; the intrinsic clearance, human liver microsomes turned out to be 175 mL/min/kg; the intrinsic clearance, rat liver microsomes stood at 1980 mL/min/kg; the aqueous solubility amounted to 2.45 µg/mL (≈ 6.72 µM).
For the compound `CCN(C/C=C/c1ccc(F)cc1)Cc1nc(COC)no1`, the MDR1-MDCK efflux ratio amounted to 0.527; the intrinsic clearance, human liver microsomes came to 25.9 mL/min/kg; the intrinsic clearance, rat liver microsomes was 862 mL/min/kg; the aqueous solubility was found to be 32 µg/mL (≈ 105 µM).
As for `Cc1cccc(Oc2cc(CN)ccn2)c1C`, the MDR1-MDCK efflux ratio was 0.443; the intrinsic clearance, human liver microsomes was not above 4.74 mL/min/kg; the intrinsic clearance, rat liver microsomes came out at 527 mL/min/kg; the aqueous solubility was 30.1 µg/mL (≈ 132 µM).
Regarding `c1ccc(-c2ccc(Cn3ccnc3-c3cc4n(n3)CCCNC4)cc2)cc1`, the intrinsic clearance, human liver microsomes stood at 14.7 mL/min/kg; the intrinsic clearance, rat liver microsomes was 399 mL/min/kg; the aqueous solubility turned out to be 4.59 µg/mL (≈ 12.4 µM).
For the compound `Cc1cccc(OC[C@@]2(O)CN(C[C@]3(O)CC[C@@H](C(C)(C)C)CC3)CC[C@@H]2O)c1`, the MDR1-MDCK efflux ratio stood at 1.33; the intrinsic clearance, human liver microsomes came out at 234 mL/min/kg; the intrinsic clearance, rat liver microsomes stood at 1790 mL/min/kg.
Take `COc1ccc(N)c(OCc2ccccc2)c1`: the MDR1-MDCK efflux ratio came out at 0.705; the intrinsic clearance, human liver microsomes amounted to 103 mL/min/kg; the intrinsic clearance, rat liver microsomes was determined as 707 mL/min/kg.
In the case of `CCOc1cc(CC(=O)N[C@@H](CC(C)C)c2ccccc2N2CCCCC2)ccc1C(=O)O`, the MDR1-MDCK efflux ratio was 28.7; the fraction unbound, human plasma came to 0.0128; the fraction unbound, rat plasma amounted to 0.00864; the intrinsic clearance, human liver microsomes was 38.2 mL/min/kg. The compound further registered an intrinsic clearance, rat liver microsomes of 218 mL/min/kg.
Consider `COc1ccncc1NCc1cscn1`, for which the intrinsic clearance, human liver microsomes is not above 4.74 mL/min/kg and the intrinsic clearance, rat liver microsomes was 25.4 mL/min/kg.
Take `Cc1cc(N(CCO)CCCO)ncc1Br`: the MDR1-MDCK efflux ratio came to 0.766; the intrinsic clearance, human liver microsomes turned out to be 12.4 mL/min/kg; the intrinsic clearance, rat liver microsomes came to 478 mL/min/kg.
Take `COc1cc(C=C2C(=O)NN(c3ccccc3)C2=O)ccc1OCC(N)=O`: the intrinsic clearance, human liver microsomes came to 158 mL/min/kg; the intrinsic clearance, rat liver microsomes came out at 277 mL/min/kg; the aqueous solubility was 29.7 µg/mL (≈ 80.7 µM).
`CC(C)C[C@H](C(=O)N[C@H](C(=O)OC1CCCC1)c1ccccc1)[C@@H](O)C(=O)NO` came in with an intrinsic clearance, human liver microsomes of 55.3 mL/min/kg and an intrinsic clearance, rat liver microsomes of 598 mL/min/kg.
As to `CN1CCC(O)(CNC(=O)C2CCCCCC2)CC1`, the MDR1-MDCK efflux ratio amounted to 11.2; the intrinsic clearance, human liver microsomes was not above 4.74 mL/min/kg; the intrinsic clearance, rat liver microsomes was determined as 458 mL/min/kg.
Regarding `N#Cc1ccc(COc2cnc3ccccc3n2)cc1`, the MDR1-MDCK efflux ratio worked out at 0.507 and the aqueous solubility was 0.19 µg/mL (≈ 0.727 µM).
On to `Cc1ccc(-c2cc(NC(=O)CN3CCOCC3)on2)cc1`, for which the MDR1-MDCK efflux ratio amounted to 0.561; the intrinsic clearance, human liver microsomes was not above 4.74 mL/min/kg; the intrinsic clearance, rat liver microsomes turned out to be 71 mL/min/kg; the aqueous solubility is 52.1 µg/mL (≈ 173 µM).
In the case of `OCC1CCCCN1Cc1ccc(-c2ccccc2)cc1` (configuration not stated), the MDR1-MDCK efflux ratio is 0.708; the fraction unbound, human plasma was 0.233; the fraction unbound, rat plasma worked out at 0.248; the intrinsic clearance, human liver microsomes turned out to be 20.6 mL/min/kg. Also, the intrinsic clearance, rat liver microsomes stood at 2220 mL/min/kg and the aqueous solubility turned out to be 41.7 µg/mL (≈ 148 µM).
As for `Cc1cccc(C(=O)N(C)CCc2cnccn2)c1`, the MDR1-MDCK efflux ratio was 0.8; the intrinsic clearance, human liver microsomes came to 13 mL/min/kg; the intrinsic clearance, rat liver microsomes came to 141 mL/min/kg; the aqueous solubility came to 30.4 µg/mL (≈ 119 µM).
`Cc1csc(Nc2ccc(C#N)cc2)n1`: the MDR1-MDCK efflux ratio worked out at 0.419; the intrinsic clearance, human liver microsomes was determined as 201 mL/min/kg; the intrinsic clearance, rat liver microsomes turned out to be 620 mL/min/kg; the aqueous solubility is 38.2 µg/mL (≈ 177 µM).
